Measured values published in patent publication US11096979B2, “Pharmaceutical composition for preventing or treating liver diseases, containing licorice extract containing glycyrrhizin and liquiritin” (NOVAREX CO., LTD., priority 2016, dated 2021).

Legend:
[1] = test system: cultured hepatocytes (HepG2); settings: human, 100 μM
[2] = test system: HepG2 cells with hepatotoxicity induced by t-BHP; assay: Inhibition of t-BHP-induced hepatotoxicity in cultured hepatocytes; settings: HepG2, FIG. 6
iNOS, COX2 = assay: iNOS and COX2 mRNA (PCR) in LPS-treated BV2 cells; type: cell-based; settings: BV2 cells treated with LPS, FIGS. 3A-3C
Description: (§1) In order to investigate the molecular biological mechanism of the anti-inflammatory effect of the single components derived from the licorice extract, the following test was conducted. BV2 cells were treated with an inflammation inducer LPS, after which the extent of inhibition of the increase in proinflammatory cytokines, iNOS ([…]), COX2 (cyclooxygenase-2), etc. by three components (glycyrrhizin, liquiritin and liquiritigenin) was measured based on changes in mRNA using a PCR technique.

[3] = test system: cultured hepatocytes (HepG2); assay: Cell viability of HepG2 cells treated with single components or t-BHP; settings: HepG2, t-BHP alone, FIG. 6
TNF-α, IL-1β, IL-6 = assay: Inflammation-related cytokine mRNA (PCR) in LPS-treated BV2 cells; type: cell-based; settings: BV2 cells treated with LPS, FIGS. 4A-4C
Description: as §1

[4] = test system: NO production by LPS in BV2 cells; assay: Inhibition of NO production by LPS in BV2 cells; type: cell-based; settings: BV2 cells, 10, 20 and 50 μM, after 24 hr, FIG. 2
Description: In order to evaluate the anti-inflammatory effects of single components derived from the licorice extract, BV2 cells were treated with glycyrrhizin, liquiritin and liquiritigenin at concentrations of 10, 20 and 50 μM, after which the inhibition of NO production by LPS (Lipopolysaccharide) was measured after 24 hr.

SMILES	cell viability [1]	inhibition of hepatotoxicity induced by t-BHP [2]	expression of iNOS and COX2 (mRNA) (iNOS, COX2)	cell viability upon treatment with t-BHP [3]	expression of inflammation-related cytokines (TNF-α, IL-1β, IL-6) (TNF-α, IL-1β, IL-6)	inhibition of NO production by LPS [4]
O=C1C[C@@H](c2ccc(O[C@@H]3O[C@H](CO)[C@@H](O)[C@H](O)[C@H]3O)cc2)Oc2cc(O)ccc21 [liquiritin]	≥ 95%	hepatotoxicity inhibition effects increased with the treatment concentration thereof	decreased the expression of iNOS and COX2 more strongly than glycyrrhizin			
CC(C)(C)OO [t-BHP, t-butyl hydroperoxide]				about 30%		
CC1(C)[C@@H](O[C@H]2O[C@H](C(=O)O)[C@@H](O)[C@H](O)[C@H]2O[C@@H]2O[C@H](C(=O)O)[C@@H](O)[C@H](O)[C@H]2O)CC[C@]2(C)[C@H]3C(=O)C=C4[C@@H]5C[C@@](C)(C(=O)O)CC[C@]5(C)CC[C@@]4(C)[C@]3(C)CC[C@@H]12 [glycyrrhizin]	≥ 95%	hepatotoxicity inhibition effects increased with the treatment concentration thereof			inhibited more strongly	
O=C1C[C@@H](c2ccc(O)cc2)Oc2cc(O)ccc21 [liquiritigenin]		hepatotoxicity inhibition effects increased with the treatment concentration thereof	also exhibited reduction effects			greatest efficacy
